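Grown in 96-well plates, cells were treated for 48 hours with each compound at five concentrations. Insufficient inhibition: endpoint recorded as highest concentration tested. GI50 = concentration required for 50% inhibition of growth.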 Activity calls are given as the source filed them. Cut-off read from the data, not from the text of the source: active = GI50 up to about 1.1 µM and inactive = higher.
Key:
Assay in all cases: NCI-60 cell line screen, 48 h
SF-539 = system: SF-539
SF-295 = system: SF-295
UO-31 = system: UO-31
MCF7 = system: MCF7
A549 = system: A549
M14 = system: M14
ACHN = system: ACHN
NCI-H226 = system: NCI-H226
SNB-75 = system: SNB-75
NCI-H23 = system: NCI-H23
HT-29 = system: HT-29
A498 = system: A498
NCI-H522 = system: NCI-H522
OVCAR-8 = system: OVCAR-8
HOP-92 = system: HOP-92
786-0 = system: 786-0
MDA-MB-231 = system: MDA-MB-231
SW-620 = system: SW-620
SF-268 = system: SF-268
MOLT-4 = system: MOLT-4

Measured: GI50

CNC(=O)c1ccc(C(=O)NCCCCCN(O)C(=O)CCC(=O)NCCCCCN(O)C(=O)CCC(=O)NCCCCCN(O)C(C)=O)c(O)c1O
inactive: SF-539 29 µM | SF-295 42.6 µM | UO-31 24.3 µM | MCF7 48.2 µM | A549 54.7 µM | M14 59.8 µM | ACHN 32.8 µM | NCI-H226 > 100 µM | SNB-75 > 100 µM | NCI-H23 65.9 µM | HT-29 38.9 µM | A498 > 100 µM | NCI-H522 60.1 µM | OVCAR-8 30.8 µM | HOP-92 37.4 µM | 786-0 69.3 µM | MDA-MB-231 53.7 µM | SW-620 39.3 µM | SF-268 23.1 µM

O=C(O)c1ccc(Cc2ccccc2C(=O)O)cc1
inactive: SF-539 > 100 µM | SF-295 > 100 µM | UO-31 > 100 µM | MCF7 > 100 µM | A549 > 100 µM | M14 > 100 µM | ACHN > 100 µM | NCI-H226 > 100 µM | SNB-75 49.5 µM | NCI-H23 > 100 µM | HT-29 > 100 µM | A498 > 100 µM | NCI-H522 > 100 µM | OVCAR-8 > 100 µM | HOP-92 > 100 µM | 786-0 > 100 µM | MDA-MB-231 > 100 µM | SW-620 > 100 µM | SF-268 > 100 µM

CCC(Nc1ncnc2nc[nH]c12)C(=O)O (centres undefined)
inactive: SF-295 > 100 µM | UO-31 > 100 µM | MCF7 > 100 µM | A549 > 100 µM | M14 > 100 µM | ACHN > 100 µM | NCI-H226 > 100 µM | SNB-75 26.2 µM | NCI-H23 > 100 µM | HT-29 > 100 µM | A498 > 100 µM | NCI-H522 > 100 µM | OVCAR-8 > 100 µM | HOP-92 > 100 µM | 786-0 > 100 µM | MDA-MB-231 > 100 µM | SW-620 > 100 µM | SF-268 > 100 µM

O=[N+]([O-])c1cc(C(F)(F)F)ccc1S(=O)(=O)N[C@@H]1CCCC[C@H]1NS(=O)(=O)c1ccc(C(F)(F)F)cc1[N+](=O)[O-]
inactive: SF-539 1.81 µM | SF-295 2.86 µM | UO-31 3.56 µM | MCF7 1.72 µM | A549 4.16 µM | M14 2.75 µM | ACHN 2.7 µM | NCI-H226 7.52 µM | SNB-75 1.83 µM | NCI-H23 2.28 µM | HT-29 3.37 µM | A498 5.43 µM | NCI-H522 2.45 µM | OVCAR-8 2.86 µM | HOP-92 1.98 µM | 786-0 3.47 µM | MDA-MB-231 2.77 µM | SW-620 3.78 µM | SF-268 2.49 µM

COc1ccc(NC(=O)N(C)CC2(O)CCC(C(C)(C)C)CC2)cc1 (centres undefined)
inactive: SF-539 > 100 µM | SF-295 29 µM | UO-31 30.6 µM | MCF7 19.4 µM | A549 90.6 µM | M14 > 100 µM | ACHN > 100 µM | MOLT-4 52.6 µM | SNB-75 52.6 µM | NCI-H23 99.3 µM | HT-29 32.5 µM | A498 81.3 µM | NCI-H522 32.7 µM | OVCAR-8 60.8 µM | HOP-92 3.66 µM | 786-0 > 100 µM | MDA-MB-231 41.8 µM | SW-620 > 100 µM | SF-268 > 100 µM

COc1ccccc1Cc1ccc(C2C=CC3(CC(=O)C=C3C)C(=O)C2)o1 (centres undefined)
inactive: SF-539 18.6 µM | SF-295 22.1 µM | UO-31 29.1 µM | MCF7 17.1 µM | A549 33.9 µM | M14 32.1 µM | ACHN 33 µM | NCI-H226 25.6 µM | MOLT-4 16 µM | NCI-H23 21 µM | HT-29 35.3 µM | A498 20 µM | NCI-H522 16 µM | OVCAR-8 17.1 µM | HOP-92 20.5 µM | 786-0 20.2 µM | MDA-MB-231 21 µM | SW-620 18.5 µM | SF-268 20.3 µM

O=C(/C=C/C=C/c1ccccc1)CCc1ccccc1
inactive: SF-539 > 100 µM | SF-295 > 100 µM | UO-31 90.6 µM | MCF7 > 100 µM | A549 > 100 µM | M14 > 100 µM | NCI-H226 > 100 µM | MOLT-4 21 µM | SNB-75 > 100 µM | NCI-H23 63.7 µM | HT-29 69.7 µM | A498 > 100 µM | NCI-H522 50.2 µM | OVCAR-8 73.8 µM | HOP-92 > 100 µM | 786-0 > 100 µM | MDA-MB-231 > 100 µM | SW-620 37.6 µM | SF-268 85.1 µM

CCNC(=O)c1c(O)nc2ccccc2c1O
inactive: SF-539 > 100 µM | SF-295 80.9 µM | UO-31 73.5 µM | MCF7 51.8 µM | A549 55.6 µM | ACHN 40.5 µM | NCI-H226 > 100 µM | MOLT-4 42 µM | SNB-75 > 100 µM | NCI-H23 > 100 µM | HT-29 46.2 µM | A498 > 100 µM | NCI-H522 69.2 µM | OVCAR-8 > 100 µM | HOP-92 75.3 µM | 786-0 67.3 µM | MDA-MB-231 67.5 µM | SW-620 43.1 µM | SF-268 63.4 µM

CSC1=N/C(=C\c2ccco2)C(=O)N1CN1CCCCC1
inactive: SF-295 > 100 µM | UO-31 > 100 µM | MCF7 17.3 µM | A549 > 100 µM | M14 85.3 µM | ACHN 69.5 µM | NCI-H226 > 100 µM | MOLT-4 71.3 µM | SNB-75 > 100 µM | NCI-H23 > 100 µM | HT-29 51.6 µM | A498 > 100 µM | NCI-H522 > 100 µM | OVCAR-8 75.9 µM | HOP-92 28.4 µM | 786-0 54.6 µM | MDA-MB-231 > 100 µM | SW-620 36.1 µM | SF-268 92.3 µM

Cc1ccc([N+](=O)[O-])cc1S(=O)(=O)Nc1ccc(C2=NN(S(=O)(=O)c3cc([N+](=O)[O-])ccc3C)C(c3cccs3)C2)cc1 (centres undefined)
inactive: SF-295 21.2 µM | UO-31 34.5 µM | MCF7 10.7 µM | A549 32.7 µM | M14 36 µM | ACHN 32.4 µM | NCI-H226 52.7 µM | MOLT-4 22.4 µM | SNB-75 > 100 µM | NCI-H23 21.8 µM | HT-29 38.4 µM | A498 13.8 µM | NCI-H522 26.1 µM | OVCAR-8 50.2 µM | HOP-92 33.7 µM | 786-0 44.2 µM | MDA-MB-231 24.9 µM | SW-620 49.7 µM | SF-268 28.1 µM

— ChEMBL document CHEMBL1201862, “PubChem BioAssay data set” (2004)
